Results from patent publication US20190100553A1, “DIRECT ACTIVITY ASSAYS AND COMPOSITIONS FOR NUCLEOTIDE POOL SANITIZING ENZYMES” (priority 2016, published 2019).

Molecular target: T1, MTH1 (Homo sapiens, UniProt P36639)
T1 construct: Human MTH1 full length protein purchased from Abcam (Cambridge, USA); purchased Abcam
Assay: MTH1 inhibitor IC50 determination by two-tube OGAL probe assay
Format: biochemical
Details: 40 μM OGAL, read-out: apparent IC50
Protocol: Inhibitory concentration (IC50) values were determined by the two-tube OGAL probe assay. The reaction buffer contained: 50 mM NaCl, 10 mM Tris-HCl (pH 7.9), 10 mM MgCl2, 1 mM DTT, 40 μM OGAL nucleotides, and varied concentrations of inhibitors. After 15 min incubation at 30° C., 5 μL of this reaction solution was added to 95 μL luciferase reaction solution in a 96 well plate to measure ATP signals. All the reactions were performed as three replicates. The IC50 was calculated using GraphPad Prism software.

- IC50: 1900 nM
SMILES: Nc1ncnc2c1c(-c1cccc(OCc3ccccc3)c1)cn2C1CC(CN2CCC2)C1 (stereo not shown) [NVP-AEW541]
